This note sets out measurements from the supplement of paper PMC11061612.

Assay [1] concerns FADU (Head and Neck Carcinoma). Put plainly: Bliss excess, mean over the matrix (fraction); higher = more synergy. Summed up:
(§1)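 After 24 hours at 37°C and 5% CO2 in 1536-well plates, cells in DMEM/F12 or RPMI plus 10% FBS received two-drug dose matrices for 72 hours. Viability came from CellTiter-Glo 2.0 luminescence and was scaled as inhibition, anchored at 0 by vehicle wells and at 1 by blank wells. Combination Emax is taken as the second-highest inhibition in the matrix, and Bliss excess as the observed combination effect less EA + EB − EA·EB, with EA and EB the single-agent effects.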

Assay [2] relates to HSC-39 (Gastric Carcinoma). The description is as above. Summed up:
as §1

The test system of assay [3] is L-1236 (Hodgkin's Lymphoma). The assay is described as above. In a few lines: as §1
Assay [4] has as its system LXF-289 (Lung Adenocarcinoma). The description is as above. In a few lines: as §1
For assay [5], the system named is NB12 (Neuroblastoma). The assay is described as above. Summed up:
as §1

Assay [6] has as its system NCI-H446 (Small Cell Lung Carcinoma). The assay is described as above. In a few lines:
as §1

Assay [7] concerns OPM-2 (Plasma Cell Myeloma). The assay is described as above. In a few lines:
as §1

The subject of assay [8] is SK-MEL-2 (Melanoma). The assay is described as above. Summed up:
as §1

Assay [9] deals with NB12 (Neuroblastoma). The assay is described as follows: combination Emax (second highest fraction inhibited in the dose matrix, 72 h); higher = more inhibition; extreme values may be limits of the assay. In a few lines: as §1
For assay [10], the system named is SK-MEL-2 (Melanoma). Described as above. In a few lines: as §1
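Throughout, for Bliss excess, mean over the matrix: after 72 h of two-drug dosing.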

As to `CN(C)CCCOc1ccc(-c2ccc3ncc4c(c3c2)n(C2CCOCC2)c(=O)n4C)cn1` [AZD0156] + O=C(c1cc(Cc2n[nH]c(=O)c3ccccc23)ccc1F)N1CCN(C(=O)C2CC2)CC1 [Olaparib] (first compound max 3 µM, partner max 3 µM), the Bliss excess in assay [1] is 0.0039; in assay [2], 0.128; in assay [3], -0.0602; in [4] it was 0.092; in the assay with NB12 (Neuroblastoma) [5], 0.0534; in assay [6] it was 0.0788. Also, the Bliss excess in [7] is 0.0067; in the assay on SK-MEL-2 (Melanoma) [8], -0.045. For the same compound, the figures for the “combination Emax” value in the assay on NB12 (Neuroblastoma) [9] and in the assay with SK-MEL-2 (Melanoma) [10] were 0.363 and 0.0599, respectively.

Turning to `C=CCn1c(=O)c2cnc(Nc3ccc(N4CCN(C)CC4)cc3)nc2n1-c1cccc(C(C)(C)O)n1` [AZD1775] + C1CN(CCC1(C(=O)N[C@@H](CCO)C2=CC=C(C=C2)Cl)N)C3=NC=NC4=C3C=CN4 [Capivasertib] (first compound max 3 µM, partner max 3 µM), the Bliss excess in assay [1] was 0.0615; in assay [2], 0.0067; in [3] it was -0.097; in assay [4], -0.0046; with NB12 (Neuroblastoma) [5], -0.0491; in [6], 0.0213. In addition, the Bliss excess is 0.0001 in [7] and -0.0472 in the assay on SK-MEL-2 (Melanoma) [8]. Also, the “combination Emax” value worked out at 0.746 in the assay on NB12 (Neuroblastoma) [9] and 0.637 with SK-MEL-2 (Melanoma) [10].

On to `COc1nnc2ccc(N3CCC(c4ccc(OCCN5CCN(C)C(=O)[C@H]5C)cc4)CC3)nn12` [AZD5153] + C=CCn1c(=O)c2cnc(Nc3ccc(N4CCN(C)CC4)cc3)nc2n1-c1cccc(C(C)(C)O)n1 [AZD1775] (first compound max 1 µM, partner max 1 µM), for which the Bliss excess in assay [1] was -0.0273; in [2], -0.0516; in [3] it was -0.0138; in assay [4], -0.0212; with NB12 (Neuroblastoma) [5], -0.0313; in assay [6] it was -0.0553. Also, the Bliss excess in assay [7] was -0.0366; in the assay on SK-MEL-2 (Melanoma) [8], -0.116. The “combination Emax” value in the assay with NB12 (Neuroblastoma) [9] was 0.958; in the assay on SK-MEL-2 (Melanoma) [10], 0.635.

Take `COc1nnc2ccc(N3CCC(c4ccc(OCCN5CCN(C)C(=O)[C@H]5C)cc4)CC3)nn12` [AZD5153] + CC1(C)CCC(CN2CCN(c3ccc(C(=O)NS(=O)(=O)c4ccc(NCC5CCOCC5)c([N+](=O)[O-])c4)c(Oc4cnc5[nH]ccc5c4)c3)CC2)=C(c2ccc(Cl)cc2)C1 [Venetoclax] (first compound max 1 µM, 7x7, partner max 1 µM): the Bliss excess in [1] was -0.0492; in assay [2], 0.0439; in assay [3], 0.0177; in assay [4], -0.009; with NB12 (Neuroblastoma) [5] it was 0.0928; in assay [6], 0.0507. In addition, the Bliss excess is 0.0082 in assay [7] and -0.0035 in the assay on SK-MEL-2 (Melanoma) [8]. The “combination Emax” value with NB12 (Neuroblastoma) [9] worked out at 0.971; with SK-MEL-2 (Melanoma) [10], 0.519.

As for `COc1nnc2ccc(N3CCC(c4ccc(OCCN5CCN(C)C(=O)[C@H]5C)cc4)CC3)nn12` [AZD5153] + CCN(CCO)CCCOc1ccc2c(Nc3cc(CC(=O)Nc4cccc(F)c4)[nH]n3)ncnc2c1 [AZD2811] (first compound max 1 µM, 7x7, partner max 1 µM), the Bliss excess was -0.0529 in [1]; -0.006 in [2]; -0.027 in [3]; 0.0227 in assay [4]; 0.0269 in the assay on NB12 (Neuroblastoma) [5]; -0.0481 in [6]. The Bliss excess in assay [7] was 0.0194; in the assay with SK-MEL-2 (Melanoma) [8], -0.0912. Further, the “combination Emax” value in the assay on NB12 (Neuroblastoma) [9] is 0.937; in the assay with SK-MEL-2 (Melanoma) [10], 0.485.

Take `COc1nnc2ccc(N3CCC(c4ccc(OCCN5CCN(C)C(=O)[C@H]5C)cc4)CC3)nn12` [AZD5153] + C[C@@H]1COCCN1C2=NC(=NC(=C2)C3(CC3)[S@](=N)(=O)C)C4=C5C=CNC5=NC=C4 [AZD6738] (first compound max 1 µM, 7x7, partner max 10 µM): the Bliss excess in [1] was 0.0155; in assay [2], -0.0055; in assay [3], -0.0093; in [4] it was 0.0681; with NB12 (Neuroblastoma) [5], 0.0067; in assay [6], 0.0153. Besides, the Bliss excess in assay [7] is -0.0245; with SK-MEL-2 (Melanoma) [8], 0.0037. Besides, the “combination Emax” value turned out to be 0.958 with NB12 (Neuroblastoma) [9] and 0.693 in the assay on SK-MEL-2 (Melanoma) [10].

For `COc1nnc2ccc(N3CCC(c4ccc(OCCN5CCN(C)C(=O)[C@H]5C)cc4)CC3)nn12` [AZD5153] + Cc1c2c(nn1C)CSCc1cc(n(C)n1)CSc1cc(c3ccccc3c1)OCCCc1c(C(=O)O)n(C)c3c-2c(Cl)ccc13 [AZD5991] (first compound max 1 µM, 7x7, partner max 1 µM), the Bliss excess in assay [1] is -0.0366; in [2], 0.0135; in [3], 0.0283; in assay [4] it was 0.0019; with NB12 (Neuroblastoma) [5], 0.0267; in assay [6] it was 0.0153. For the same compound, the Bliss excess in assay [7] was -0.0062; with SK-MEL-2 (Melanoma) [8] it was -0.0198. For the same compound, the “combination Emax” value in the assay on NB12 (Neuroblastoma) [9] is 0.942; with SK-MEL-2 (Melanoma) [10] it was 0.984.

With `COc1nnc2ccc(N3CCC(c4ccc(OCCN5CCN(C)C(=O)[C@H]5C)cc4)CC3)nn12` [AZD5153] + Cn1cnc2c(F)c(Nc3ccc(Br)cc3Cl)c(C(=O)NOCCO)cc21 [Selumetinib] (first compound max 1 µM, 7x7, partner max 10 µM), the Bliss excess in assay [1] was -0.015; in assay [2], -0.0013; in [3], -0.0252; in assay [4], -0.0468; with NB12 (Neuroblastoma) [5], -0.0428; in [6] it was 0.033. In addition, the Bliss excess in [7] was -0.0136; in the assay with SK-MEL-2 (Melanoma) [8] it was -0.0349. Moreover, the “combination Emax” value worked out at 0.799 in the assay on NB12 (Neuroblastoma) [9] and 0.926 in the assay on SK-MEL-2 (Melanoma) [10].

Turning to `NC1(C(=O)N[C@@H](CCO)c2ccc(Cl)cc2)CCN(c2ncnc3[nH]ccc23)CC1` [Capivasertib] + CC(=O)c1c(C)c2cnc(Nc3ccc(N4CCNCC4)cn3)nc2n(C2CCCC2)c1=O [Palbociclib] (first compound max 10 µM, 7x7, partner max 10 µM), the Bliss excess in assay [1] is -0.0259; in assay [2], 0.0906; in assay [3] it was -0.0829; in [4], 0.0199; in the assay with NB12 (Neuroblastoma) [5] it was 0.0139; in [6], -0.03. Further, the Bliss excess in assay [7] was 0.0472; in the assay with SK-MEL-2 (Melanoma) [8] it was -0.0408. In addition, the “combination Emax” value with NB12 (Neuroblastoma) [9] amounted to 0.399; in the assay with SK-MEL-2 (Melanoma) [10], 0.0717.

Turning to `CC1(C)CCC(CN2CCN(c3ccc(C(=O)NS(=O)(=O)c4ccc(NCC5CCOCC5)c([N+](=O)[O-])c4)c(Oc4cnc5[nH]ccc5c4)c3)CC2)=C(c2ccc(Cl)cc2)C1` [Venetoclax] + CCN(CCO)CCCOc1ccc2c(Nc3cc(CC(=O)Nc4cccc(F)c4)[nH]n3)ncnc2c1 [AZD2811] (first compound max 1 µM, 7x7, partner max 1 µM), the Bliss excess in assay [1] is 0.0341; in assay [2] it was 0.0077; in assay [3], -0.0197; in assay [4], -0.0678; in assay [6], -0.0077; in [7] it was 0.085.

Regarding `CC1(C)CCC(CN2CCN(c3ccc(C(=O)NS(=O)(=O)c4ccc(NCC5CCOCC5)c([N+](=O)[O-])c4)c(Oc4cnc5[nH]ccc5c4)c3)CC2)=C(c2ccc(Cl)cc2)C1` [Venetoclax] + CN(C)CCCOc1ccc(-c2ccc3ncc4c(c3c2)n(C2CCOCC2)c(=O)n4C)cn1 [AZD0156] (first compound max 1 µM, 7x7, partner max 1 µM), the Bliss excess is 0.0088 in assay [1]; 0.015 in [2]; -0.0182 in assay [3]; -0.0157 in assay [4]; 0.0143 in assay [6]; 0.0271 in assay [7].

Regarding `CC1(C)CCC(CN2CCN(c3ccc(C(=O)NS(=O)(=O)c4ccc(NCC5CCOCC5)c([N+](=O)[O-])c4)c(Oc4cnc5[nH]ccc5c4)c3)CC2)=C(c2ccc(Cl)cc2)C1` [Venetoclax] + COc1cc(Nc2ncc3c(n2)-c2ccc(Cl)cc2C(c2c(F)cccc2OC)=NC3)ccc1C(=O)O [Alisertib] (first compound max 1 µM, 7x7, partner max 10 µM), the Bliss excess was 0.0252 in assay [1]; -0.103 in [2]; -0.05 in [3]; -0.0953 in assay [4]; -0.0775 in assay [6]; 0.272 in assay [7].

Take `CC1(C)CCC(CN2CCN(c3ccc(C(=O)NS(=O)(=O)c4ccc(NCC5CCOCC5)c([N+](=O)[O-])c4)c(Oc4cnc5[nH]ccc5c4)c3)CC2)=C(c2ccc(Cl)cc2)C1` [Venetoclax] + C[C@@H]1COCCN1C2=NC(=NC(=C2)C3(CC3)[S@](=N)(=O)C)C4=C5C=CNC5=NC=C4 [AZD6738] (first compound max 1 µM, 7x7, partner max 10 µM): the Bliss excess is 0.0467 in assay [1]; 0.0079 in [2]; -0.019 in assay [3]; -0.0138 in assay [4]; -0.0536 in [6]; -0.0462 in assay [7].

Consider `CC1(C)CCC(CN2CCN(c3ccc(C(=O)NS(=O)(=O)c4ccc(NCC5CCOCC5)c([N+](=O)[O-])c4)c(Oc4cnc5[nH]ccc5c4)c3)CC2)=C(c2ccc(Cl)cc2)C1` [Venetoclax] + C[C@@H](Nc1cc(F)cc(F)c1)c1cc(C(=O)N(C)C)cc2c(=O)cc(N3CCOCC3)oc12 [AZD8186] (first compound max 1 µM, 7x7, partner max 3 µM), for which the Bliss excess in assay [1] was -0.0291; in [2], -0.0503; in assay [3], -0.0261; in assay [4], -0.0008; in assay [6], 0.135; in assay [7] it was -0.0134.

For the compound `CC1(C)CCC(CN2CCN(c3ccc(C(=O)NS(=O)(=O)c4ccc(NCC5CCOCC5)c([N+](=O)[O-])c4)c(Oc4cnc5[nH]ccc5c4)c3)CC2)=C(c2ccc(Cl)cc2)C1` [Venetoclax] + Cc1cc2ncnn2cc1Nc1ncc2c(n1)n(C1CCOCC1)c(=O)n2C [AZD7648] (first compound max 1 µM, 7x7, partner max 10 µM), the Bliss excess in assay [1] is -0.0241; in assay [2], -0.0289; in assay [3] it was -0.0274; in assay [4], -0.0935; in [6], -0.0181; in [7], -0.0263.

As to `CC1(C)CCC(CN2CCN(c3ccc(C(=O)NS(=O)(=O)c4ccc(NCC5CCOCC5)c([N+](=O)[O-])c4)c(Oc4cnc5[nH]ccc5c4)c3)CC2)=C(c2ccc(Cl)cc2)C1` [Venetoclax] + Cn1cnc2c(F)c(Nc3ccc(Br)cc3Cl)c(C(=O)NOCCO)cc21 [Selumetinib] (first compound max 1 µM, 7x7, partner max 3 µM), the Bliss excess is 0.0212 in [1]; -0.048 in [2]; -0.0319 in assay [3]; -0.0312 in assay [4]; -0.0372 in [6]; -0.0093 in [7].
